Experimental data: publication PMC2673211, “Nitric oxide activates ATP-sensitive potassium channels in mammalian sensory neurons: action by direct S-nitrosylation” (Molecular Pain, 2009)

Biological target: T1, KATP channels in large DRG neurons (Rattus norvegicus, UniProt P70673+Q09429)
T1 construct: native KATP channels in large DRG neurons; endogenous in cells; host or cells: acutely dissociated large-diameter neurons from rat L4/L5 dorsal root ganglia (sham-operated or spinal nerve ligated animals)
T1 sequence (Q09429 whole entry): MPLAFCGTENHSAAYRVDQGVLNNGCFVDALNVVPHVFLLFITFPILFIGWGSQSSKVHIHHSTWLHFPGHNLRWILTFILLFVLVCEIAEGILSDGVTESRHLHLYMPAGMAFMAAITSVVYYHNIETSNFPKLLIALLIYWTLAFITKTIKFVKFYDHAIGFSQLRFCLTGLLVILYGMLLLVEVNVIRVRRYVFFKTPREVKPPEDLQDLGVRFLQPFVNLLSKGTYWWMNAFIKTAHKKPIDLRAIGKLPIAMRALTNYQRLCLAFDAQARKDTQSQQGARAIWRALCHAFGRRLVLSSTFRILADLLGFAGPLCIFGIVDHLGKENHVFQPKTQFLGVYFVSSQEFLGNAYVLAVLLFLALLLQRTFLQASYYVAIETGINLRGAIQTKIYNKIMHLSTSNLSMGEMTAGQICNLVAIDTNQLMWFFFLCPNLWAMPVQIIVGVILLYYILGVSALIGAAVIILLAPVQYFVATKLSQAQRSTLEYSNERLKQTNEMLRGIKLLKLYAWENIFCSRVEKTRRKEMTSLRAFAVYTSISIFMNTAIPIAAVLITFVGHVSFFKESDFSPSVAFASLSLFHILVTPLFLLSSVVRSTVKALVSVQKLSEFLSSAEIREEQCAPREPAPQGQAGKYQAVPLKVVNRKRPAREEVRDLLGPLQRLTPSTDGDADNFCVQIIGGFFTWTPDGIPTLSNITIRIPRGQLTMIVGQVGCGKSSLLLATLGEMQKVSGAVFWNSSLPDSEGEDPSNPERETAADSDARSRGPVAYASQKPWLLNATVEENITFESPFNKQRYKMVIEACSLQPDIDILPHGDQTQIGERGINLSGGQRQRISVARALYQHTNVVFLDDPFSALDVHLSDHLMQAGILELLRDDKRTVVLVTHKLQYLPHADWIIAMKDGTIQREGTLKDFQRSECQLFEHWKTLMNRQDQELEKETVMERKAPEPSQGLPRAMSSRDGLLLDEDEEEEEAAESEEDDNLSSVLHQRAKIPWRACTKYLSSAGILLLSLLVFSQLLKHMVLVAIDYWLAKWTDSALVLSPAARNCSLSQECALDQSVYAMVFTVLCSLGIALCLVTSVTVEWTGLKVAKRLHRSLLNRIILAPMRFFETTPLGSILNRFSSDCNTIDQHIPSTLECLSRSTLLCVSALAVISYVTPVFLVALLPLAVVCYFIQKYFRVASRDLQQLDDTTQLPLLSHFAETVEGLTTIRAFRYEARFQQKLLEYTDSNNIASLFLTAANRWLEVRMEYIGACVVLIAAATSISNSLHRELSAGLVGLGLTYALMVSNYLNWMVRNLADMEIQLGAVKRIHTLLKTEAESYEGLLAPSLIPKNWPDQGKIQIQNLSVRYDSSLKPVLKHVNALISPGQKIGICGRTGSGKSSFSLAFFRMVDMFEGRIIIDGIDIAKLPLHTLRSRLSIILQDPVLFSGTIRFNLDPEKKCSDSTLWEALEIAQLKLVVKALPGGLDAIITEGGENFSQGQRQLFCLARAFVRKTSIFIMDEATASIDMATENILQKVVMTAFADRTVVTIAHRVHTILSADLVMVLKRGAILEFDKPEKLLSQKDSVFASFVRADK
T1 sequence (P70673 whole entry): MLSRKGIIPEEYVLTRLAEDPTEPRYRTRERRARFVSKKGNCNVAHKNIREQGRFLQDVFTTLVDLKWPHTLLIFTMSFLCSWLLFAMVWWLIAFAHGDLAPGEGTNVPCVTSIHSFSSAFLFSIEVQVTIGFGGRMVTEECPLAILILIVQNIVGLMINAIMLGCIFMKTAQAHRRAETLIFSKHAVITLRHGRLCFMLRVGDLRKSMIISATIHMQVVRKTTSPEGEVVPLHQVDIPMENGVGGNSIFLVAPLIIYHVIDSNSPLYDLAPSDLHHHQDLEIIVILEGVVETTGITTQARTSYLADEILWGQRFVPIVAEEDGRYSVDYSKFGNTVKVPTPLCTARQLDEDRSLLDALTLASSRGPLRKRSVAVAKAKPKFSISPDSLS
Assay: Excised inside-out (cell-free) patch-clamp recording of KATP channel activity
Format: biochemical
Settings: SS neurons; for direct effect on KATP channel in inside-out patches: n = 6
From the text: We harvested control (L4 and L5) or axotomized (L5) ganglia, from control (SS) or hyperalgesic rats (SNL) respectively, between the 17th and 28th postoperative days. We sacrificed animals by decapitation under deep isoflurane anesthesia, excised ganglia through a lumbar incision, and at the same time confirmed accuracy of initial surgery.
For patch-clamp recordings, we placed excised DRG into separate 35 mm Petri dishes containing cold, oxygenated, Hanks Balanced Salt Solution (Gibko, Invitrogen, Grand Islan, NY), and minced them with iris scissors. We dissociated ganglia enzymatically in a solution containing 0.25 ml 0.05% w:v liberase blendzyme 2 (Roche Diagnostics Corp., Indianapolis, IN) and 0.25 ml DMEM/F12 with glutaMAX (Dulbecco's modified Eagle's medium F12; Gibco, Invitrogen Corp., Carlsbad, CA) in an incubator at 37°C for 30 min. We then removed the supernatant after centrifugation and re-incubated cells at 37°C for another 30 min in 0.2 ml 0.0625% trypsin (Sigma, St. Louis, MO) and 0.0125% deoxyribonuclease 1 (150,000 U, Sigma, St. Louis, MO) in 0.25 ml DMEM. We then isolated cells by centrifugation (600 rpm for 5 min) after adding 0.25 ml trypsin inhibitor 0.1% w:v (Sigma St. Louis, MO), and re-suspended them in a culture medium consisting of 0.5 mM glutamine, 0.02 mg/ml gentamicin (Gibco, Invitrogen Corp., Carlsbad, CA), 100 ng/ml nerve growth factor 7S (Alomone Labs, Jerusalem, Israel), 2% (vol/vol) B-27 supplement (Gibco, Invitrogen Corp., Carlsbad, CA), and 98% (vol/vol) neural basal medium A (Gibco, Invitrogen Corp., Carlsbad, CA). Finally, we plated cells onto poly-l-lysine-coated 12-mm glass coverslips (Deutsche Spiegelglas; Carolina Biologic Supply, Burlington, NC), kept them in a humidified incubator at 37°C with 95% air and 5% CO2, and studied them within 3–8 h of dissociation.
We visualized plated neurons using an inverted Nikon Diaphot 300 microscope with Hoffman modulation optic system. We selected only large diameter neuronal somata (≥ 40 μm in diameter) because we have previously shown that only these develop KATP current alterations, as well as changes indicative of increased excitability after painful-like nerve injury by SNL [74]. Large neuronal somata, roughly correspond to large, myelinated Aβ fibers.
We recorded current passing through single channels in inside-out or cell-attached patch configurations. In cell-attached patches, both bath and pipette (extracellular) solutions were composed of the following: 140 mM KCl, 10 mM HEPES, 5.5 mM dextrose, and 1 mM EGTA. In inside-out patches, the bath (intracellular) solution contained 140 mM KCl, 1.2 mM MgCl2, 10 mM HEPES, 1.5 mM EGTA and 5.5 mM dextrose. The pipette (extracellular) solution was of the same composition as that used in cell-attached recordings. The pH of all solutions was adjusted to 7.4 with KOH. Osmolality was adjusted approximately to 300 mOsm/l by adding sucrose if necessary. We pulled patch micropipettes from borosilicate glass capillaries using a Flaming/Brown micropipette puller, model P-97 (Sutter, San Rafael, CA) and flame polished them with a microforge polisher (Narishige, Tokyo, Japan) prior to use. Their resistance ranged between 3 and 6 MΩ when filled with the internal solution, and placed into the recording solutions.
We recorded single channel currents at room temperature (20–25°C) using an Axon CNS Multiclamp 700B amplifier, digitized them using an analog-to-digital converter (Axon CNS DigiData 1440A; Axon Instruments, Foster, CA), and stored them into a PC. Sampling frequency of single-channel data was 5 KHz with a low-pass filter (1 KHz). We used pClamp version 10.2 software (Axon Instruments) for data acquisition and analysis. We applied a conventional 50% current amplitude threshold level criterion to determine open events. Channel open probability (Po) was determined from the ratios of the area under the peaks in the amplitude histograms fitted by a Gaussian distribution. […]

direct effect on KATP channel in inside-out patches (SNAP 100 μM in the presence of 1 mM [ATP]i): gradually activated
baseline current amplitude and conductance of channels (patch exposure to 100 μM SNAP, n = 5): remained unchanged
Substance: S-nitroso-N-acetylpenicillamine [SNAP]
direct effect on KATP channel in inside-out patches (SNAP 100 μM in the presence of 10 μM [ATP]i): did not produce any significant channel activation
